Source: PMC5007854, “β-Nitrostyrenes as Potential Anti-leishmanial Agents” (Frontiers in Microbiology, 2016)
Like-named read-outs stand apart in the source and are kept apart here.

Tests used:
[1] = tested on: L. donovani promastigotes; assay: Dose-dependent anti-promastigote activity, IC50 and IC90; type: cell-based, Leishmania donovani; conditions: Leishmania donovani, 72 h; for IC50: read-out: L. donovani promastigotes IC50 ± SEM; for IC90: read-out: L. donovani promastigotes IC90 ± SEM
Description: L. donovani parasites (MHOM/IN/83/AG83) were maintained in vivo in BALB/c mice. Promastigotes were routinely cultured at 22°C in medium M199 supplemented with 10% heat inactivated fetal bovine serum (FBS, HiMedia Laboratories, Mumbai, India), penicillin 100 (IU/ml), streptomycin (100 μg/ml). Log phase promastigotes were sub-cultured every 72–96 h, the inoculum being 2 × 10^6 cells/ml (Afrin et al., [2002]).
AmB was used as a standard antileishmanial drug control. The cell viability was evaluated by microscopically and the mean percentage viability was calculated as follows: Mean cell number of treated parasites / Mean cell number of untreated parasites × 100. The 50 and 90% inhibitory concentration (IC50 and IC90) i.e., the concentration of drugs that decreased the cell growth by 50 and 90% respectively was determined by graphical extrapolation after plotting the graph of % viability vs. concentration of drug (Islamuddin et al., [2014b]).
(§1) In vitro antileishmanial activity was expressed as IC50 by linear regression analysis. Values are mean ± SE of samples in triplicate from at least three independent experiments. Statistical analysis was performed using ANOVA followed by Dunnett's test. ^*P < 0.05, ^**P < 0.01 and ^***P < 0.001 compared with the untreated control group were considered significant.

[2] = tested on: L. donovani intracellular amastigotes; assay: Anti-amastigote activity in ex vivo macrophage model; type: cell-based, Leishmania donovani; conditions: 48 h; for Clearance of intracellular amastigotes in Giemsa-stained micrographs: 1.56 μM; for IC50: Leishmania donovani, Peritoneal macrophage, in Mus musculus, read-out: L. donovani amastigotes IC50 ± SEM
Text: BALB/c mice was used for the isolation of peritoneal macrophages in the ex vivo anti-amastigote study after prior approval from the Jamia Hamdard Animal Ethics Committee (JHAEC). JHAEC is registered under the Committee for the purpose of supervision and control of experiments on animals (CPCSEA). Mice were individually housed in the Central Animal House of Jamia Hamdard as per internationally accepted norms. The mice were kept in standard size polycarbonate cages under controlled conditions of temperature (23 ± 1°C), humidity (55 ± 10%), 12:12 h of light and dark cycle and fed with standard pellet diet and filtered water (ad libitum).
Macrophages from the peritonial cavity of BALB/c mice (1 × 10^6 cellsml^−1) were allowed to adhere to round glass coverslips in a 24 well tissue culture plate and incubated for 12 h at 37°C in a CO2 incubator. After removal of the non-adherent macrophages, the cells were infected with stationary phase promastigotes using a cell to parasite ratio of 1:10 and incubated at 37°C for 24 h. The non-phagocytosed parasites were removed by washing, and the infected macrophages incubated with the test compounds 9, 12, 14, and 18 (0–25 μM) for an additional 48 h. The coverslips were fixed in methanol and giemsa-stained for microscopic evaluation (100X) of amastigote infectivity. Number of amastigotes per 100 macrophages were enumerated and the concentration that decreased amastigotes by 50% (IC50) was determined (Wong et al., [2012]; Islamuddin et al., [2014a]).
as §1

[3] = tested on: L. donovani promastigotes; assay: Promastigote cellular morphology by phase-contrast microscopy; type: cell-based, Leishmania donovani; conditions: 1 μM, 72 h
Description: Changes in the cellular morphology of Leishmania parasites as a result of compounds 9, 12, 14, and 18 treatment was observed microscopically. Briefly, the promastigotes (2 × 10^6 cells/mL) were incubated in the absence or presence of compounds and AmB for 72 h at a concentration of 1 μM and observed under 40 × objective of a phase-contrast microscope. […] Data were recorded by using NIS-Elements imaging software (Paris et al., [2004]).

[4] = tested on: L. donovani promastigotes; assay: Leishmanicidal assay (growth reversion after wash-out); type: cell-based, Leishmania donovani; conditions: 1 μM, 72 h treatment, then 72 h in fresh media
Description: To confirm the leishmanicidal effect of compounds 9, 12, 14, and 18, treated and untreated parasites (1 μM) after 72 h of incubation, were washed two times with fresh incomplete medium and finally resuspended in complete media, transferred back to 22°C and allowed to grow for 72 h. The viability of the parasites was determined microscopically (Afrin et al., [2001]).

[5] = tested on: L. donovani promastigotes; assay: Anti-leishmanial screening at 100 μM, parasite viability by microscopy; type: cell-based, Leishmania donovani; conditions: 100 μM, 72 h, phase contrast microscope
In short: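 Promastigotes (MHOM/IN/83/AG83) at 2 × 10^6 cells/mL in M199 with 10% FBS exposed to compound at 100 μM for 72 h at 22°C. Viability assessed microscopically; 0.2% DMSO solvent control, amphotericin B reference.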

[6] = tested on: murine macrophage cell line RAW264.7; assay: Ex vivo cytotoxicity assay (MTT); type: cell-based; conditions: increasing concentrations, 48 h, 37°C (Figure 6)
Description: Murine macrophage cell line, RAW264.7 was grown at 37°C in medium RPMI-1640 (pH 7.4, Sigma-Aldrich, St. Louis, MO, USA) supplemented with 10% heat-inactivated FBS for 48 to 72 h in a humidified atmosphere of 5% CO2 and sub-cultured in fresh RPMI-1640 medium at an average density 2 × 10^5 cells/ml (Islamuddin et al., [2014b]).
To evaluate the adverse toxicity of test compounds (9, 12, 14, and 18) on mammalian cells, the murine macrophage cell line (RAW264.7) cultured in RPMI 1640 medium were exposed to increasing concentrations of test compounds (5–50 μM) at 37°C, 5% CO2 for 48 h. AmB as the reference drug, and macrophages without any treatment were taken as control. The percentage of cell viability was evaluated by MTT (3-{4, 5-dimethylthiazol-2-yl}-2, 5-diphenyltetrazoliumbromide) assay (Das et al., [2008]).

[7] = 22°C, mean from three determinations
[8] = intracellular amastigotes in BALB/c peritoneal macrophages

Compound: COc1ccc(/C=C(\C)[N+](=O)[O-])cc1 [Compound 14, 1-methoxy-4-((E)-2-nitroprop-1-enyl) benzene]
- IC50 [1, 7]: 40.5 ± 1.47 nM
- IC90 [1, 7]: 89 ± 0.52 nM
- Clearance of intracellular amastigotes in Giemsa-stained micrographs [2]: almost total clearance
- IC50 [2, 8]: 26.4 ± 2.71 nM
- Cellular morphological alterations of promastigotes [3]: altered to an ovoid shape with cell shrinkage, loss of flagella, cytoplasmic condensation
- Leishmanicidal effect (reversion after wash and 72 h in fresh media) [4]: did not revert back to their normal morphology and still appeared dead
- Parasite viability after treatment [5]: All the parasites were found to be dead
- Adverse toxicity on macrophage cell line RAW264.7 [6]: Absence of adverse toxicity

Compound: CC/C(=C\c1ccc([N+](=O)[O-])cc1)[N+](=O)[O-] [Compound 9, 1-nitro-4-((E)-2-nitrobut-1-enyl) benzene]
- IC50 [1]: 23.4 ± 0.71 nM
- IC90 [1]: 90.2 ± 1.11 nM
- Clearance of intracellular amastigotes in Giemsa-stained micrographs [2]: almost total clearance
- IC50 [2]: 30.5 ± 3.42 nM
- Cellular morphological alterations of promastigotes [3]: altered to an ovoid shape with cell shrinkage, loss of flagella, cytoplasmic condensation
- Leishmanicidal effect (reversion after wash and 72 h in fresh media) [4]: did not revert back to their normal morphology and still appeared dead
- Parasite viability after treatment [5]: All the parasites were found to be dead
- Adverse toxicity on macrophage cell line RAW264.7 [6]: Absence of adverse toxicity

Compound: CC/C(=C\c1ccc(O)cc1)[N+](=O)[O-] [Compound 18, 4-((E)-2-nitrobut-1-enyl) phenol]
- IC50 [1, 7]: 55.7 ± 2.84 nM
- IC90 [1, 7]: 320 ± 3.65 nM
- Clearance of intracellular amastigotes in Giemsa-stained micrographs [2]: almost total clearance
- IC50 [2, 8]: 61.6 ± 8.02 nM
- Cellular morphological alterations of promastigotes [3]: altered to an ovoid shape with cell shrinkage, loss of flagella, cytoplasmic condensation
- Leishmanicidal effect (reversion after wash and 72 h in fresh media) [4]: did not revert back to their normal morphology and still appeared dead
- Parasite viability after treatment [5]: All the parasites were found to be dead
- Adverse toxicity on macrophage cell line RAW264.7 [6]: Absence of adverse toxicity

Compound: CC/C(=C\c1cccc([N+](=O)[O-])c1)[N+](=O)[O-] [Compound 12, 1-nitro-3-((E)-2-nitrobut-1-enyl) benzene]
- IC50 [1]: 37.8 ± 3.74 nM
- IC90 [1]: 86.46 ± 0.21 nM
- Clearance of intracellular amastigotes in Giemsa-stained micrographs [2]: almost total clearance
- IC50 [2]: 21.5 ± 0.96 nM
- Cellular morphological alterations of promastigotes [3]: altered to an ovoid shape with cell shrinkage, loss of flagella, cytoplasmic condensation
- Leishmanicidal effect (reversion after wash and 72 h in fresh media) [4]: did not revert back to their normal morphology and still appeared dead
- Parasite viability after treatment [5]: All the parasites were found to be dead
- Adverse toxicity on macrophage cell line RAW264.7 [6]: Absence of adverse toxicity
